In patent US10975037B2 (priority 2018, dated 2021) one finds Kd, inhibition and IC50 data, which are given here for 14 compounds.

Where two headings read alike, the source gives them in different places.

The target in test [1] is human RORγt ligand binding domain (RORγt LBD) (Homo sapiens (Human), UniProt P51449). The test is described as follows: RORγt ThermoFluor® assay (thermal shift binding). In short, it runs like this:
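Thermal shift with 0.065 mg/mL RORγt LBD and 60 μM 1,8-ANS in 100 mM Hepes pH 7.0, 10 mM NaCl, 2.5 mM GSH, 0.002% Tween-20.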

In another test the target is full-length human RORγt (Homo sapiens (Human), UniProt P51449). Kind of test: RORγt (full-length human) reporter assay, conditions A or B, HEK293T cells. The format is cell-based. The following applies: for IC50: RORγt (FL) Reporter Assay A or B, IC50, HEK293T cells; for inhibition at 3 µM: 3 μM compound concentration (footnote *). The method in brief: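 Dual-luciferase read-out was taken after an overnight (16–20 h) compound exposure. Firefly data were scaled between DMSO-only and saturating reference compound, Renilla-normalized, then plotted against concentration for IC50.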
In general terms: Reporter assays use an easily measured gene product as a stand-in for the process of interest.

For test [2], the system named is IL-17 production by CD4 T cells under conditions which favor Th17 differentiation. The test is described as follows: Human Th17 assay (IL-17 production by CD4 T cells). The format is cell-based. On the procedure:
The human Th17 assay tests the effect of RORγt modulatory compounds on IL-17 production by CD4 T cells under conditions which favor Th17 differentiation. Total CD4^+ T cells were isolated from the peripheral blood mononuclear cells (PBMC) of healthy donors using a CD4^+ T cell isolation kit II, following the manufacturer's instructions (Miltenyi Biotec). […] 50 μL of compound at titrated concentrations in DMSO were added into each well at final DMSO concentration at 0.2%. Cells were incubated for 1 hour, then 50 μL of Th17 cell differentiation medium was added to each well. […] Cells were cultured at 37° C. and 5% CO2 for 3 days. Supernatants were collected and the accumulated IL-17 in culture was measured by using MULTI-SPOT® Cytokine Plate following manufacture's instruction (Meso Scale Discovery). The plate was read using Sector Imager 6000, and IL-17 concentration was extrapolated from the standard curve. The IC50s were determined by GraphPad.

Where [3] appears, read: HEK-293T, 0.67 μM compound concentration (footnote ****), read-out: RORγt (FL) Reporter Assay A or B, % inhibition.
[4] abbreviates: Homo sapiens, CD4+ T; read-out: Human Th17 Assay, IC50.
Setting [5] is: HEK-293T, read-out: RORγt (FL) Reporter Assay A or B, % inhibition.
Where [6] appears, read: read-out: ThermoFluor® Assay, Kd.

Sequence of full-length human RORγt (P51449 other isoform, or with tags, fused parts or gaps): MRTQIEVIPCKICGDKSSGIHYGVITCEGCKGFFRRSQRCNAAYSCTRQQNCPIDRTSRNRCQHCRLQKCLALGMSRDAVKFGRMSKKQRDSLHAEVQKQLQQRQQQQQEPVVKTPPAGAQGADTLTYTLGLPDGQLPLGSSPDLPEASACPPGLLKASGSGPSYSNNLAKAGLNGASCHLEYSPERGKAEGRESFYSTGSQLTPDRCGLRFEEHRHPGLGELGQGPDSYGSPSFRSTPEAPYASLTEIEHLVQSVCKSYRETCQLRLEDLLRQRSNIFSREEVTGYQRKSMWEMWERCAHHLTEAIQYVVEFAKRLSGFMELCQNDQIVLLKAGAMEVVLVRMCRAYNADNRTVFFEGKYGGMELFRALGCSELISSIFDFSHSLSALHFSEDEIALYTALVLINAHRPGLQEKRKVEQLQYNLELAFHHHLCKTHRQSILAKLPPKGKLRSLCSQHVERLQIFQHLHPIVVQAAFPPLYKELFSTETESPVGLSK
Sequence of human RORγt ligand binding domain (RORγt LBD) (P51449 other isoform, or with tags, fused parts or gaps): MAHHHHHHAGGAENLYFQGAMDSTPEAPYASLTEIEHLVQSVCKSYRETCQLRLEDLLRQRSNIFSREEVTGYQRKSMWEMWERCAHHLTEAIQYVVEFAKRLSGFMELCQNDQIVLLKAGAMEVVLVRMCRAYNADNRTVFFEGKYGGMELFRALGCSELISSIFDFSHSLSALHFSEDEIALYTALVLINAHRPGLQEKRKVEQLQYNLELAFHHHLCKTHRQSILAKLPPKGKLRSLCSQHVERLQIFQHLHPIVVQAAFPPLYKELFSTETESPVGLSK

The Kd is a measure of binding affinity in units of concentration. By inhibition is commonly meant the change of the read-out against control, counted positive when it falls. One may read the IC50 as the concentration needed to halve the response being measured. On to `CCn1nc(C(=O)NC[C@H]2CC[C@H](S(C)(=O)=O)CC2)c(Cl)c1-c1ccc(C[C@H](C)C(F)(F)F)cc1OC` (single isomer, unassigned) [Example 3, 4-Chloro-1-ethyl-5-(2-methoxy-4-((S*)-3,3,3-trifluoro-2-methylpropyl)phenyl)-N-(((1r,4R)-4-(methylsulfonyl)cyclohexyl)methyl)-1H-pyrazole-3-carboxamide], for which the Kd in test [1] (ThermoFluor® Assay, Kd) amounted to 0.63 nM. Moreover, the inhibition at 0.67 µM on full-length human RORγt (setting [3]) came to 98%. Besides, the values for the IC50 (against full-length human RORγt; in test [2] (setting [4])) were 9 nM and 15 nM, respectively.
`CCn1nc(C(=O)NC[C@]2(O)CC[C@@H](S(C)(=O)=O)C[C@H]2O)c(Cl)c1-c1ccc(CC(C)(C)C(F)(F)F)cc1OC(F)F` (single isomer, unassigned) [Example 46, 4-Chloro-5-(2-(difluoromethoxy)-4-(3,3,3-trifluoro-2,2-dimethylpropyl)phenyl)-N-(((1R*,2R*,4R*)-1,2-dihydroxy-4-(methylsulfonyl)cyclohexyl)methyl)-1-ethyl-1H-pyrazole-3-carboxamide]: in test [1] (ThermoFluor® Assay, Kd), the Kd came to 0.42 nM. Moreover, the inhibition at 0.67 µM at full-length human RORγt (setting [3]) was found to be 92%. In addition, the IC50 was 5 nM against full-length human RORγt and 13 nM in test [2] (setting [4]).
With `CCn1nc(C(=O)NC[C@]2(O)CC[C@@H](S(C)(=O)=O)C[C@H]2O)c(Cl)c1-c1ccc(C[C@H](C)C(F)(F)F)cc1OC(F)F` (stereo in doubt) [Example 53, 4-Chloro-5-(2-(difluoromethoxy)-4-((S*)-3,3,3-trifluoro-2-methylpropyl)phenyl)-N-(((1R*,2R*,4R*)-1,2-dihydroxy-4-(methylsulfonyl)cyclohexyl)methyl)-1-ethyl-1H-pyrazole-3-carboxamide], in test [1] (ThermoFluor® Assay, Kd), the Kd amounted to 1.6 nM. Further, the inhibition at 1 µM at full-length human RORγt (HEK-293T, 1 μM compound concentration (footnote ***), read-out: RORγt (FL) Reporter Assay A or B, % inhibition) was 99%. Also, the concentration for half-maximal inhibition (IC50) was 6.3 nM at full-length human RORγt and 13 nM in test [2] (setting [4]).
On to `CCn1nc(C(=O)NC[C@]2(O)CC[C@@H](S(C)(=O)=O)C[C@H]2O)c(C)c1-c1ccc(C[C@H](C)C(F)(F)F)cc1OC(F)F` (stereo in doubt) [Example 58, 5-(2-(difluoromethoxy)-4-((S*)-3,3,3-trifluoro-2-methylpropyl)phenyl)-N-(((1R*,2R*,4R*)-1,2-dihydroxy-4-(methylsulfonyl)cyclohexyl)methyl)-1-ethyl-4-methyl-1H-pyrazole-3-carboxamide], for which, in test [1] (ThermoFluor® Assay, Kd), the Kd stood at 2.6 nM. Also, the inhibition at 3 µM at full-length human RORγt (setting [5]) stood at 100%. In addition, the IC50 against full-length human RORγt worked out at 9.7 nM; in test [2] (setting [4]) it was 19 nM.
Take `CCn1nc(C(=O)NC[C@H]2CC[C@H](S(C)(=O)=O)CC2)c(Cl)c1-c1ccc(N[C@H](C)C(F)(F)F)cc1OC` [Example 23, 4-chloro-1-ethyl-5-(2-methoxy-4-(((R)-1,1,1-trifluoropropan-2-yl)amino)phenyl)-N-(((1 r,4R)-4-(methylsulfonyl)cyclohexyl)methyl)-1H-pyrazole-3-carboxamide]: in test [1] (setting [6]), the Kd is 4.6 nM. Moreover, the inhibition at 2 µM at full-length human RORγt (HEK-293T, 2 μM compound concentration, read-out: RORγt (FL) Reporter Assay A or B, % inhibition) stood at 104%. Further, the half-maximal inhibitory concentration (IC50) came to 28 nM on full-length human RORγt and 38 nM in test [2] (setting [4]).
`CCn1nc(C(=O)NC[C@]2(C#N)CC[C@@H](S(C)(=O)=O)CC2)c(Cl)c1-c1ccc(N[C@H](C)C(F)(F)F)cc1OC` [Example 32, 4-Chloro-N-(((1s,4S)-1-cyano-4-(methylsulfonyl)cyclohexyl)methyl)-1-ethyl-5-(2-methoxy-4-(((R)-1,1,1-trifluoropropan-2-yl)amino)phenyl)-1H-pyrazole-3-carboxamide]: in test [1] (setting [6]), the Kd came out at 7.6 nM. For the same compound, the inhibition at 2 µM on full-length human RORγt (setting [5]) was determined as 96%. For the same compound, the IC50 was 53 nM on full-length human RORγt and 62 nM in test [2] (setting [4]).
In the case of `CCn1nc(C(=O)NC[C@]2(O)CC[C@@H](S(N)(=O)=O)CC2)c(Cl)c1-c1ccc(CC(C)(C)C(F)(F)F)cc1OC(F)F` [Example 62, 4-Chloro-5-(2-(difluoromethoxy)-4-(3,3,3-trifluoro-2,2-dimethylpropyl)phenyl)-1-ethyl-N-(((1s,4s)-1-hydroxy-4-sulfamoylcyclohexyl)methyl)-1H-pyrazole-3-carboxamide], the Kd in test [1] (setting [6]) came out at 0.78 nM. Moreover, on full-length human RORγt (setting [5]), the inhibition at 3 µM is 120%. Also, the IC50 on full-length human RORγt is 12 nM; in test [2] (setting [4]) it was 36 nM.
For the compound `CCn1nc(C(=O)NC[C@]2(O)CC[C@@H](S(C)(=O)=O)CC2)c(C)c1-c1ccc(CCCC(F)(F)F)cc1OC(F)F` [Example 79, 5-(2-(Difluoromethoxy)-4-(4,4,4-trifluorobutyl)phenyl)-1-ethyl-N-(((1s,4s)-1-hydroxy-4-(methylsulfonyl)cyclohexyl)methyl)-4-methyl-1H-pyrazole-3-carboxamide], the Kd in test [1] (setting [6]) worked out at 2 nM. Further, on full-length human RORγt (setting [3]), the inhibition at 0.67 µM is 99%. The IC50 on full-length human RORγt is 8.7 nM; in test [2] (setting [4]), 58 nM.
Regarding `CCn1nc(C(=O)NC[C@]2(O)CC[C@@H](S(C)(=O)=O)CC2)c(Cl)c1-c1ccc(CC(C(F)(F)F)C(F)(F)F)cc1OC` [Example 85, 4-Chloro-1-ethyl-N-(((1s,4s)-1-hydroxy-4-(methylsulfonyl)cyclohexyl)methyl)-5-(2-methoxy-4-(3,3,3-trifluoro-2-(trifluoromethyl)propyl)phenyl)-1H-pyrazole-3-carboxamide], the Kd in test [1] (setting [6]) was 0.43 nM. In addition, the inhibition at 0.67 µM at full-length human RORγt (setting [3]) came to 103%. The IC50 against full-length human RORγt came to 2.6 nM; in test [2] (setting [4]) it was 9.3 nM.
In the case of `CCn1nc(C(=O)NC[C@]2(CO)CC[C@@H](S(C)(=O)=O)CC2)c(Cl)c1-c1ccc(CC(C)C(F)(F)F)cc1OC` (some centres unmarked) [Example 92, 4-Chloro-1-ethyl-N-(((1s*,4s*)-1-(hydroxymethyl)-4-(methylsulfonyl)cyclohexyl)methyl)-5-(2-methoxy-4-(3,3,3-trifluoro-2-methylpropyl)phenyl)-1H-pyrazole-3-carboxamide], the Kd in test [1] (setting [6]) is 39 nM. Besides, the inhibition at 0.67 µM at full-length human RORγt (setting [5]) was 87%. Moreover, the IC50 against full-length human RORγt is 66 nM; in test [2] (setting [4]), 270 nM.
For the compound `COc1cc(N[C@H](C)C(F)(F)F)ccc1-c1c(Cl)c(C(=O)NC[C@H]2CC[C@H](S(C)(=O)=O)CC2)nn1CCC#N` [Example 129, 4-Chloro-1-(2-cyanoethyl)-5-(2-methoxy-4-(((R)-1,1,1-trifluoropropan-2-yl)amino)phenyl)-N-(((1r,4R)-4-(methylsulfonyl)cyclohexyl)methyl)-1H-pyrazole-3-carboxamide], the Kd in test [1] (ThermoFluor® Assay, Kd) was determined as 72 nM. Also, the inhibition at 6 µM on full-length human RORγt (HEK-293T, read-out: RORγt (FL) Reporter Assay A or B, % inhibition @ 6 μM, 6 μM compound concentration) worked out at 102%. The half-maximal inhibitory concentration (IC50) amounted to 810 nM on full-length human RORγt and 2300 nM in test [2] (setting [4]).
Turning to `CCn1nc(C(=O)NC[C@]2(O)CC[C@@H](S(C)(=O)=O)CC2)c(Cl)c1-c1ccc(CC(C)(C)C(F)(F)F)cc1OC(F)F` [Example 132, 4-Chloro-5-(2-(difluoromethoxy)-4-(3,3,3-trifluoro-2,2-dimethylpropyl)phenyl)-1-ethyl-N-(((1s,4s)-1-hydroxy-4-(methylsulfonyl)cyclohexyl)methyl)-1H-pyrazole-3-carboxamide], the Kd in test [1] (setting [6]) worked out at 0.45 nM. Moreover, the inhibition at 2 µM at full-length human RORγt (setting [5]) turned out to be 99%. Besides, the half-maximal inhibitory concentration (IC50) at full-length human RORγt stood at 8.1 nM; in test [2] (Homo sapiens, CD4+ T, read-out: Human Th17 Assay, IC50) it was 6 nM.
`CCn1nc(C(=O)NC[C@]2(O)CC[C@@H](S(C)(=O)=O)CC2)c(C)c1-c1ccc(CC(C)(C)C(F)(F)F)cc1OC(F)F` [Example 143, 5-(2-(Difluoromethoxy)-4-(3,3,3-trifluoro-2,2-dimethylpropyl)phenyl)-1-ethyl-N-(((1s,4s)-1-hydroxy-4-(methylsulfonyl)cyclohexyl)methyl)-4-methyl-1H-pyrazole-3-carboxamide]: in test [1] (setting [6]), the Kd was 0.37 nM. At full-length human RORγt (HEK-293T, 0.22 μM compound concentration (footnote *******), read-out: RORγt (FL) Reporter Assay A or B, % inhibition), the inhibition at […] came out at 101%. In addition, the IC50 was 7.3 nM on full-length human RORγt and 10 nM in test [2] (setting [4]).
For `Cc1c(C(=O)NC[C@]2(O)CC[C@@H](S(C)(=O)=O)CC2)nn(C)c1-c1ccc(CCCC(F)(F)F)cc1OC(F)F` [Example 161, 5-(2-(Difluoromethoxy)-4-(4,4,4-trifluorobutyl)phenyl)-N-(((1s,4s)-1-hydroxy-4-(methylsulfonyl)cyclohexyl)methyl)-1,4-dimethyl-1H-pyrazole-3-carboxamide], the Kd in test [1] (setting [6]) was 32 nM. In addition, on full-length human RORγt (setting [5]), the inhibition at 3 µM was 81%. Also, the figures for the IC50 (at full-length human RORγt; in test [2] (setting [4])) were 7.8 nM and 200 nM, respectively.
